Results: article PMC6337497 (International Journal of Molecular Sciences, 2018)

What was measured:
[1] = Antioxidant activity (DPPH assay); settings: [DPPH] = 60 µM, methanol, 120 min; read-out: IC50, DPPH radical scavenging
Method: The antioxidant activity of the compounds was evaluated in terms of hydrogen donating or radical scavenging ability, using the stable DPPH radical (1,1-diphenyl-2-picrylhydrazyl radical). A variable amount (15, 30, 45, 75, 105, and 150 µL) of a methanol solution (1.2 mM) of each compound was placed in a cuvette, and 3 mL of a 60 µM methanol solution of DPPH was added. Absorbance measurements were initiated immediately. The decrease in absorbance at 517 nm was monitored every minute up to 5′, then every 5′ up to 30′ and every 30′ until reaction reaches completion and absorbance stabilizes attaining a plateau after 120′. Methanol was used to zero the spectrophotometer. The absorbance of the DPPH radical without K3F compound, i.e., the control, was measured daily, and concentration was calculated applying Equation (2) (2) [DPPH^·]=A−1.006/10970
The percentage of inhibition (%In) of the DPPH radical by each sample was calculated according to the formula (3) %In=A0−At/A0×100 where A0 represents the absorbance of the control (DPPH radical) at time 0, while At refers to the absorbance of the mixture DPPH/antioxidant at time t (120 min). Values of absorbance were corrected taking into account volume dilution and all determinations were performed in triplicate.

[2] = system: PC3 cells; test: MTT cell viability assay, PC3; type: cell-based, Human; settings: Homo sapiens, PC-3, 48 h, 48 h treatment, MTT
Method: (§1) Human prostate cancer PC3 cells (CRL 1435, ATCC, Manassas, VA, USA) were grown in Ham’s F12 nutrient medium, human prostate cancer DU145 cells (HTB-81, ATCC, Manassas, VA, USA) in RPMI 1640 medium and human colorectal carcinoma HCT116 cells (CCL-247, ATCC, Manassas, VA, USA) in IMDM medium. All media (Biowest, Nuaillé, France) were supplemented with 10% Foetal Bovine Serum (Gibco-Thermo Fisher Scientific, Waltham, MA, USA), L-glutamine, penicillin, and streptomycin (Euroclone, Milan, Italy), and grown at 37 °C in a humidified 5% CO2 atmosphere.
(§2) DMSO was used as control.
(§3) The inhibition of cell proliferation was measured by colorimetric MTT assay and the concentration at which cellular growth is inhibited by 50% (GI50) was determined. Briefly, cells were seeded into 96-well plates at a density of 2000 cells/well. The following day, cells were treated with the indicated compounds and analyzed for cell viability after 48 h. 5 mg/mL thiazolyl blue tetrazolium bromide (Sigma-Aldrich, St. Louis, MO, USA) was added to each well at a final concentration of 0.5 mg/mL and the plates were incubated at 37 °C for 2 h. Medium containing unconverted MTT was removed and 100 µL MTT solvent (4 mM HCl, 0.1% NP-40 in isopropyl alcohol) was added to each well. The plate was gently rotated on an orbital shaker in the dark for 15 min, before the measurements of absorbance at 570 nm. The viability of untreated cells was arbitrarily set at 100%.

[3] = system: DU145 cells; test: MTT cell viability assay, DU145; type: cell-based, Human; settings: Homo sapiens, DU-145; 48 h treatment, MTT
Method: as §1, §2, §3

[4] = system: HCT116 cells; test: MTT cell viability assay, HCT116; type: cell-based, Human; settings: HCT116, 48 h
Method: Human prostate cancer PC3 cells (CRL 1435, ATCC, Manassas, VA, USA) were grown in Ham’s F12 nutrient medium, human prostate cancer DU145 cells (HTB-81, ATCC, Manassas, VA, USA) in RPMI 1640 medium and human colorectal carcinoma HCT116 cells (CCL-247, ATCC, Manassas, VA, USA) in IMDM medium. All media (Biowest, Nuaillé, France) were supplemented with 10% Foetal Bovine Serum (Gibco-Thermo Fisher Scientific, Waltham, MA, USA), L-glutamine, penicillin, and streptomycin (Euroclone, Milan, Italy), and grown at 37 °C in a humidified 5% CO2 atmosphere. The inhibition of cell proliferation was measured by colorimetric MTT assay [51] and the concentration at which cellular growth is inhibited by 50% (GI50) was determined. Briefly, cells were seeded into 96-well plates at a density of 2000 cells/well. The following day, cells were treated with the indicated compounds and analyzed for cell viability after 48 h. 5 mg/mL thiazolyl blue tetrazolium bromide (Sigma-Aldrich, St. Louis, MO, USA) was added to each well at a final concentration of 0.5 mg/mL and the plates were incubated at 37 °C for 2 h. Medium containing unconverted MTT was removed and 100 µL MTT solvent (4 mM HCl, 0.1% NP-40 in isopropyl alcohol) was added to each well. The plate was gently rotated on an orbital shaker in the dark for 15 min, before the measurements of absorbance at 570 nm. […]

[5] = system: PC3 cells; test: Cell cycle analysis (propidium iodide), PC3; type: cell-based, Human; settings: PC3, 48 h at GI50 dose
Method: (§4) Cells were harvested after 48 h drug treatments and DNA distribution analysis of cells stained with propidium iodide solution (propidium iodide 25 µg/mL, Na-Citrate 3.4 mM, NaCl 9.65 mM, NP-40 0.03%) was performed by an Epics cytofluorimeter (Beckman Coulter Srl, Milan, Italy).

[6] = system: DU145 cells; test: Cell cycle analysis (propidium iodide), DU145; type: cell-based, Human; settings: DU145, 48 h at GI50 dose
Method: as §4

[7] = system: DU145 cells; test: Western blot of total cellular lysates, DU145; type: cell-based, Human; settings: DU145, 48 h at GI50 dose
Method: Actin was used as loading control. Whole-cell protein extracts were prepared by resuspending cells into 1X SDS sample buffer (25 mM Tris-HCl pH 6.8, 1.5 mM EDTA, 20% glycerol, 2% SDS, 5% β-mercaptoethanol, 0.0025% Bromophenol blue). Equivalent amounts of cellular extracts were resolved by SDS-PAGE, electrotransferred to PVDF membrane (GE Healthcare Italia, Milan, Italy) and immunoblotted with the following primary antibodies: anti-phospo-H2AX (sc-101696), anti-p53 (DO1) (sc-126), anti-actin ([MUT]) (sc-1616) and anti-PARP (sc-8007) antibody from Santa Cruz Biotecnology, Inc, Dallas, TX, USA.; phospho-specific AKT antibody S473 (#9018) and T308 (#9275), Akt antibody (#9272 and #2967), phospho-specific ERK1/2 antibody T202/Y204 (#4370), ERK1/2 antibody (#4669), phospho-specific p38 MAPK antibody T180/Y182 (#9211), and p38 antibody (#9212) were purchased from Cell Signaling Technologies, Danvers, MA, USA. Membranes were blotted and scanned with Bio-Rad ChemiDocTM Touch Imaging System (Bio-Rad, Hercules, CA, USA), using chemiluminescent detection reagents from Cyanagen, Bologna, Italy (Westar ηC and Supernova HRP substrates for Western blotting).

[8] = system: PC3 cells; test: Cell migration (wound) assay, PC3; type: cell-based, Human; settings: PC3, GI50 dose, 40 h
Method: 4 × 10^5 prostate cancer cells were plated in a 12-well plate. Approximately 24 h later, when the cells were 100% confluent, the monolayer was scratched using a 200 µL pipette tip. […] Three biological replicates were performed. Three random pictures were taken for each treated well per experiment and the areas of the wounds measured using ImageJ software. The percentage of wound recovery was then calculated using the formula: (final area-initial area)/initial area × 100%.

[9] = system: DU145 cells; test: K3F21/docetaxel co-administration, MTT and CompuSyn, DU145; type: cell-based, Human; settings: 48 h
Method: as §3
(§5) The ability of K3F21 and docetaxel to act synergistically with regard to growth inhibition was determined using CompuSyn software (ComboSyn, Inc., freely available at http://www.combosyn.com). Combination index (CI) and drug reduction index (DRI) were calculated for each concentration of drugs mixture, as indicated in the text. CI <1, =1 or >1 indicates synergism, additive effect, or antagonism, respectively. DRI >1 or <1 indicates favorable or not favorable dose-reduction.

[10] = system: PC3 cells; test: K3F21/docetaxel co-administration, MTT and CompuSyn, PC3; type: cell-based, Human; settings: PC3, K3F21/DTX combinations
Method: as §3, §5

[11] = Lipophilicity (data not shown); type: physicochemical

## COc1cc(/C=C/C(=O)C(CCCN2C(=O)c3ccccc3C2=O)C(=O)/C=C/c2ccc(O)c(OC)c2)ccc1O [K3F21]
[1]
  IC50: 24 µM
[2]
  GI50: 7.9 µM
[3]
  GI50: 8.6 µM
[4]
  anti-proliferative activity compared to the other derivatives: most active molecule
[5]
  effect on cell cycle distribution (in words): doubled the percentage of G2/M cells
[6]
  effect on cell cycle distribution (in words): both arrested the G2/M progression and induced cell death
[7]
  ERK1/2 phosphorylation: increased
  PARP-1 cleavage (apoptotic cell death): activation of apoptotic cell death
  phospho-p38 expression: no changes were observed
  γH2AX expression (marker of DNA damage): triggered DNA damage
[8]
  cell migration (wound recovery): exerted inhibitory effects on the migratory capacity
[9]; DU145, K3F21 and DTX 20nM
  cell viability of co-administration compared to independent treatments: significant decrease in cell viability
[9]; DU145, K3F21 co-administered with DTX 20nM
  Combination Index (CI): 0.8
[10]
  cell growth of co-administration compared to single administration: none of the evaluated K3F21/DTX combinations affected cell growth
[11]
  lipophilicity: high
